Data from US20230255953A1, “USE OF ROLUPERIDONE IN PREVENTING RELAPSE IN SCHIZOPHRENIA PATIENTS” (Minerva Neurosciences, Inc., priority 2022, published 2023).

Legend:
cholinergic receptors = settings: background statement; cited from earlier work
muscarinic receptors = settings: background statement; cited from earlier work
[1] = test system: patients with negative symptoms of schizophrenia; experiment: Study #2 (MIN-101C07) Phase 3: PANSS-derived scores (NSFS, total, subscales, Marder factors); type: in vivo, human; parameters: key to Change from Baseline LS Mean: NSFS (ITT) / Change from Baseline LS Mean: NSFS (mITT): NSFS total ranges 7 to 49; higher = more severe; settings: for Change from Baseline LS Mean: Marder's Anxiety/Depression Factor Score / Change from Baseline LS Mean: Marder's Disorganized Thought Factor Score / Change from Baseline LS Mean: Marder's Positive Symptoms Factor Score / Change from Baseline LS Mean: Marder's Uncontrolled Hostility/Excitement Factor Score / Change from Baseline LS Mean: NSFS (ITT) / Change from Baseline LS Mean: NSFS Emotional Experience Score / Change from Baseline LS Mean: NSFS Emotional Expression Score / Change from Baseline LS Mean: PANSS General Psychopathology Subscale / Change from Baseline LS Mean: PANSS Negative Symptoms Subscale / Change from Baseline LS Mean: PANSS Positive Symptoms Subscale / Change from Baseline LS Mean: PANSS Total Score / Effect Size (Cohen's d) vs Placebo: Marder's Anxiety/Depression Factor Score / Effect Size (Cohen's d) vs Placebo: Marder's Disorganized Thought Factor Score / Effect Size (Cohen's d) vs Placebo: Marder's Positive Symptoms Factor Score / Effect Size (Cohen's d) vs Placebo: Marder's Uncontrolled Hostility/Excitement Factor Score / Effect Size (Cohen's d) vs Placebo: NSFS (ITT) / Effect Size (Cohen's d) vs Placebo: NSFS Emotional Experience Score / Effect Size (Cohen's d) vs Placebo: NSFS Emotional Expression Score / Effect Size (Cohen's d) vs Placebo: PANSS General Psychopathology Subscale / Effect Size (Cohen's d) vs Placebo: PANSS Negative Symptoms Subscale / Effect Size (Cohen's d) vs Placebo: PANSS Positive Symptoms Subscale / Effect Size (Cohen's d) vs Placebo: PANSS Total Score / Effect size, change from Baseline in NSFS to Week 12: ITT; for Effect size, change from Baseline in NSFS to Week 12: 64 mg
Excerpt: “PANSS”, as used herein, refers to the positive and negative syndrome scale, which is used by physicians and clinicians to measure the severity of the symptoms in a schizophrenia patient. The scale is divided into three parts, a positive scale, which provides a “PANSS positive subscore”, a negative scale, which provides a “PANSS negative subscore”, and general psychopathology scale. The sum of these three parts provides a PANSS total score, which ranges from 30 to 210 (where higher scores indicate more severe symptoms). (Kay, S. R., et al. “The positive and negative syndrome scale (PANSS) for schizophrenia,” Schizophr Bulletin, 13(2), 261-276 (1987)).
As used herein, PANSS Marder's negative symptoms factor score (“NSFS”), refers to selection of seven of the PANSS items used by physicians and clinicians to measure the severity of the negative symptoms in a schizophrenia patient. (See Tables 5A and 5B.) The NSFS total score ranges from 7 to 49. (Marder, S. R. et al. “The effects of risperidone on the five dimensions of schizophrenia derived by factor analysis: combined results of the North American trials,” J Clin Psychiatry. 1997; 58:538-46.)
The PANSS was designed to be used in patients with schizophrenia to measure the overall severity of schizophrenic symptoms. The scale has been validated in different cultures and languages and is reliable and acceptable to regulatory health authorities as a primary scale to determine efficacy of intervention in schizophrenia. The name refers to the 2 types of symptoms in schizophrenia, as defined by the American Psychiatric Association: positive symptoms, which refer to an excess or distortion of normal functions (e.g., hallucinations and delusions), and negative symptoms, which represent a diminution or loss of normal functions.
The patient is rated from 1 to 7 on 30 different symptoms based on the interview as well as reports of family members or primary care hospital workers. The original PANSS included 3 groups of symptoms and subscale scores Positive, Negative, and General Psychopathology. Since the inception of PANSS, investigators have proposed additional grouping (structures) of PANSS such as the Marder structure (Marder, S. R. et al. “Issues and perspectives in designing clinical trials for negative symptoms in schizophrenia: consensus statements,” Schizophrenia Bulletin Open. 2020; 1(1). doi:10.1093/schizbullopen/sgz001) and the White structure (White, L. et al. “Empirical assessment of the factorial structure of clinical symptoms in schizophrenia”. Psychopathology. 1997; 30263-274).
The PANSS was assessed at the time points described in Table 4.
The PANSS-derived endpoints used in these studies and the integrated analyses are described in Table 5A and a summary of the individual PANSS items used by physicians and clinicians to measure the severity of the symptoms in a schizophrenia patient is provided in Table 5B. The scale is divided into three parts, a positive scale, which provides a “PANSS positive subscore”, a negative scale, which provides a “PANSS negative subscore”, and general psychopathology scale. The sum of these three parts provides a PANSS total score, which ranges from 30 to 210 (where higher scores indicate more severe symptoms). (See Kay, S. R., et al. “The positive and negative syndrome scale (PANSS) for schizophrenia,” Schizophr Bulletin, 13(2), 261-276 (1987) and Gopal, S., et al. “Improvement of Negative Symptoms in Schizophrenia with Paliperidone Palmitate 1-Month and 3-Month Long-Acting Injectables: Results from a Phase 3 Non-Inferiority Study” Neuropsychiatric Disease and Treatment, 681-690, DOI: 10.2147/NDT.5226296, both of which are incorporated by reference.)
Study #2 (also referred to as “MIN101C07”) was a Phase 3, randomized, DB, placebo-controlled, parallel-group 12-week study to evaluate the efficacy and safety of Roluperidone in patients ≥18 years to ≤55 years with negative symptoms of schizophrenia, followed by a 40-week OL extension. […]

Substance: 1H-Isoindol-1-one,2-[ [1-[2-(4-fluorophenyl)-2-oxoethyl]-4-piperidinyl]methyl]-2,3-dihydro-, hydrochloride, hydrate (1:1:2) [Roluperidone]
- Affinity (cholinergic receptors): very low or no affinity
- Affinity (muscarinic receptors): very low or no affinity
- Effect Size (Cohen's w) vs Placebo: 20% reduction in NSFS responders ([1]; 32 mg QD, Week 12 DB): 0.05
- Effect Size (Cohen's w) vs Placebo: 30% reduction in NSFS responders ([1]; 32 mg QD, Week 12 DB): 0.04
- Number of Patients with 20% reduction in NSFS at Week 12 ([1]; 32 mg QD, Week 12 DB): 32/116
- Number of Patients with 30% reduction in NSFS at Week 12 ([1]; 32 mg QD, Week 12 DB): 14/116
- Patients with 20% reduction in NSFS at Week 12 (%) ([1]; 32 mg QD, Week 12 DB): (28%)
- Patients with 30% reduction in NSFS at Week 12 (%) ([1]; 32 mg QD, Week 12 DB): (12%)
- Change from Baseline LS Mean: Marder's Anxiety/Depression Factor Score ([1]; 32 mg QD, Week 12 DB): −0.6
- Change from Baseline LS Mean: Marder's Disorganized Thought Factor Score ([1]; 32 mg QD, Week 12 DB): −1.6
- Change from Baseline LS Mean: Marder's Positive Symptoms Factor Score ([1]; 32 mg QD, Week 12 DB): −1.3
- Change from Baseline LS Mean: Marder's Uncontrolled Hostility/Excitement Factor Score ([1]; 32 mg QD, Week 12 DB): 0.3
- Change from Baseline LS Mean: NSFS (ITT) ([1]; 32 mg QD, Week 12 DB): −4.0
- Change from Baseline LS Mean: NSFS Emotional Experience Score ([1]; 32 mg QD, Week 12 DB): −1.5
- Change from Baseline LS Mean: NSFS Emotional Expression Score ([1]; 32 mg QD, Week 12 DB): −2.6
- Change from Baseline LS Mean: PANSS General Psychopathology Subscale ([1]; 32 mg QD, Week 12 DB): −2.8
- Change from Baseline LS Mean: PANSS Negative Symptoms Subscale ([1]; 32 mg QD, Week 12 DB): −4.2
- Change from Baseline LS Mean: PANSS Positive Symptoms Subscale ([1]; 32 mg QD, Week 12 DB): −0.3
- Change from Baseline LS Mean: PANSS Total Score ([1]; 32 mg QD, Week 12 DB): −7.1
- Effect Size (Cohen's d) vs Placebo: Marder's Anxiety/Depression Factor Score ([1]; 32 mg QD, Week 12 DB): 0.05
- Effect Size (Cohen's d) vs Placebo: Marder's Disorganized Thought Factor Score ([1]; 32 mg QD, Week 12 DB): 0.15
- Effect Size (Cohen's d) vs Placebo: Marder's Positive Symptoms Factor Score ([1]; 32 mg QD, Week 12 DB): 0.14
- Effect Size (Cohen's d) vs Placebo: Marder's Uncontrolled Hostility/Excitement Factor Score ([1]; 32 mg QD, Week 12 DB): −0.05
- Effect Size (Cohen's d) vs Placebo: NSFS (ITT) ([1]; 32 mg QD, Week 12 DB): 0.13
- Effect Size (Cohen's d) vs Placebo: NSFS Emotional Experience Score ([1]; 32 mg QD, Week 12 DB): 0.11
- Effect Size (Cohen's d) vs Placebo: NSFS Emotional Expression Score ([1]; 32 mg QD, Week 12 DB): 0.17
- Effect Size (Cohen's d) vs Placebo: PANSS General Psychopathology Subscale ([1]; 32 mg QD, Week 12 DB): 0.22
- Effect Size (Cohen's d) vs Placebo: PANSS Negative Symptoms Subscale ([1]; 32 mg QD, Week 12 DB): 0.10
- Effect Size (Cohen's d) vs Placebo: PANSS Positive Symptoms Subscale ([1]; 32 mg QD, Week 12 DB): 0.04
- Effect Size (Cohen's d) vs Placebo: PANSS Total Score ([1]; 32 mg QD, Week 12 DB): 0.17
- Change from Baseline LS Mean: NSFS (mITT) ([1]; 32 mg QD, Week 12 DB): −4.0
- Effect Size (Cohen's d) vs Placebo: NSFS (mITT) ([1]; 32 mg QD, Week 12 DB): 0.13
- Effect Size (Cohen's w) vs Placebo: 20% reduction in NSFS responders ([1]; 64 mg QD, Week 12 DB): 0.17
- Effect Size (Cohen's w) vs Placebo: 30% reduction in NSFS responders ([1]; 64 mg QD, Week 12 DB): 0.09
- Number of Patients with 20% reduction in NSFS at Week 12 ([1]; 64 mg QD, Week 12 DB): 48/122
- Number of Patients with 30% reduction in NSFS at Week 12 ([1]; 64 mg QD, Week 12 DB): 24/122
- Change from Baseline LS Mean: Marder's Anxiety/Depression Factor Score ([1]; 64 mg QD, Week 12 DB): −0.7
- Change from Baseline LS Mean: Marder's Disorganized Thought Factor Score ([1]; 64 mg QD, Week 12 DB): −1.4
- Change from Baseline LS Mean: Marder's Positive Symptoms Factor Score ([1]; 64 mg QD, Week 12 DB): −1.6
- Change from Baseline LS Mean: Marder's Uncontrolled Hostility/Excitement Factor Score ([1]; 64 mg QD, Week 12 DB): 0.5
- Change from Baseline LS Mean: NSFS (ITT) ([1]; 64 mg QD, Week 12 DB): −4.3
- Change from Baseline LS Mean: NSFS Emotional Experience Score ([1]; 64 mg QD, Week 12 DB): −1.8
- Change from Baseline LS Mean: NSFS Emotional Expression Score ([1]; 64 mg QD, Week 12 DB): −2.6
- Change from Baseline LS Mean: PANSS General Psychopathology Subscale ([1]; 64 mg QD, Week 12 DB): −2.3
- Change from Baseline LS Mean: PANSS Negative Symptoms Subscale ([1]; 64 mg QD, Week 12 DB): −4.7
- Change from Baseline LS Mean: PANSS Positive Symptoms Subscale ([1]; 64 mg QD, Week 12 DB): −0.4
- Change from Baseline LS Mean: PANSS Total Score ([1]; 64 mg QD, Week 12 DB): −7.4
- Effect Size (Cohen's d) vs Placebo: Marder's Anxiety/Depression Factor Score ([1]; 64 mg QD, Week 12 DB): 0.09
- Effect Size (Cohen's d) vs Placebo: Marder's Disorganized Thought Factor Score ([1]; 64 mg QD, Week 12 DB): 0.07
- Effect Size (Cohen's d) vs Placebo: Marder's Positive Symptoms Factor Score ([1]; 64 mg QD, Week 12 DB): 0.24
- Effect Size (Cohen's d) vs Placebo: Marder's Uncontrolled Hostility/Excitement Factor Score ([1]; 64 mg QD, Week 12 DB): −0.15
- Effect Size (Cohen's d) vs Placebo: NSFS (ITT) ([1]; 64 mg QD, Week 12 DB): 0.21
- Effect Size (Cohen's d) vs Placebo: NSFS Emotional Experience Score ([1]; 64 mg QD, Week 12 DB): 0.28
- Effect Size (Cohen's d) vs Placebo: NSFS Emotional Expression Score ([1]; 64 mg QD, Week 12 DB): 0.17
- Effect Size (Cohen's d) vs Placebo: PANSS General Psychopathology Subscale ([1]; 64 mg QD, Week 12 DB): 0.12
- Effect Size (Cohen's d) vs Placebo: PANSS Negative Symptoms Subscale ([1]; 64 mg QD, Week 12 DB): 0.23
- Effect Size (Cohen's d) vs Placebo: PANSS Positive Symptoms Subscale ([1]; 64 mg QD, Week 12 DB): 0.07
- Effect Size (Cohen's d) vs Placebo: PANSS Total Score ([1]; 64 mg QD, Week 12 DB): 0.20
- Change from Baseline LS Mean: NSFS (mITT) ([1]; 64 mg QD, Week 12 DB): −4.5
- Effect Size (Cohen's d) vs Placebo: NSFS (mITT) ([1]; 64 mg QD, Week 12 DB): 0.26
- Effect size, change from Baseline in NSFS to Week 12 ([1]; US sites subgroup): 0.32
- Effect size, change from Baseline in NSFS to Week 12 ([1]; non-US sites subgroup): 0.20
- NSFS score, course in OL period ([1]; all treatment groups, OL period to Week 52): continued to improve
